Test results taken from PubChem BioAssay (NCI).
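Method: 48-hour compound exposure of cells in 96-well plates, five concentrations, linear interpolation of endpoints. GI50 = concentration required for 50% inhibition of growth. TGI denotes the concentration required for complete inhibition of growth.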

What was measured:
Experiment in all cases: NCI-60 cell line screen, 48 h
SNB-19 CNS = test system: SNB-19 CNS
KM12 colon = test system: KM12 colon
COLO 205 colon = test system: COLO 205 colon
NCI-H23 lung = test system: NCI-H23 lung
MALME-3M melanoma = test system: MALME-3M melanoma
HOP-92 NSCLC = test system: HOP-92 NSCLC
DU-145 prostate = test system: DU-145 prostate
HCC-2998 colon = test system: HCC-2998 colon

Compound	GI50 (SNB-19 CNS)	TGI (SNB-19 CNS)	GI50 (KM12 colon)	TGI (KM12 colon)	GI50 (COLO 205 colon)	TGI (COLO 205 colon)	GI50 (NCI-H23 lung)	TGI (NCI-H23 lung)	GI50 (MALME-3M melanoma)	TGI (MALME-3M melanoma)	GI50 (HOP-92 NSCLC)	TGI (HOP-92 NSCLC)	GI50 (DU-145 prostate)	TGI (DU-145 prostate)	GI50 (HCC-2998 colon)	TGI (HCC-2998 colon)
COc1cc2c3c(n(CCCCN)c(=O)c2cc1OC)-c1cc2c(cc1C3=O)OCO2	0.464 µM	6.75 µM	1720 nM	6.32 µM	1040 nM	6.17 µM	0.676 µM	3.09 µM	4.11 µM	11.2 µM	487 nM	2.43 µM	0.147 µM	1.03 µM	0.659 µM	2.26 µM
NC(=O)c1ccc(I)c(N=O)c1	> 100 µM	> 100 µM	40700 nM	> 100 µM	21700 nM	44.3 µM	51.7 µM	> 100 µM	34 µM	> 100 µM	67100 nM	> 100 µM	43.7 µM	> 100 µM	67.5 µM	> 100 µM
COc1cc(Nc2c(C#N)cnc3cc(OCCCN4CCN(C)CC4)c(OC)cc23)c(Cl)cc1Cl	9.26 µM	21.1 µM	331 nM	7.24 µM	1600 nM	3.03 µM	4.55 µM	17.7 µM	1.83 µM	3.67 µM	2080 nM	10.5 µM	1.19 µM	14.6 µM	3.08 µM	9.21 µM
CNC(=O)c1cccc2cc(Oc3ccnc4cc(OCC5(N)CC5)c(OC)cc34)ccc12	5.82 µM	30.4 µM	6170 nM	19.7 µM	8660 nM	23.7 µM	11.2 µM	28.9 µM	9.07 µM	26.8 µM	6890 nM	21 µM	12.1 µM	25.5 µM	11 µM	26.2 µM
COc1cc2oc3cc(=O)cc4oc(-c5ccccc5)cc(c2c2c1CCC(c1ccccc1)O2)c43 (configuration not stated)	–	> 100 µM	–	65.5 µM	–	46.1 µM	–	> 100 µM	–	> 100 µM	–	> 100 µM	–	> 100 µM	–	> 100 µM
c1csc(-c2cn3nc(-c4c[nH]c5ccccc45)sc3n2)c1	2.56 µM	> 100 µM	498 nM	10.5 µM	–	–	4.47 µM	> 100 µM	10.4 µM	36.9 µM	5460 nM	> 100 µM	2.86 µM	> 100 µM	2.99 µM	26.7 µM
COC(=O)[C@@]12OC[C@]34[C@H]([C@@H](O)[C@@H]1O)[C@@]1(C)[C@H](O)C(=O)C=C(C)[C@@H]1C[C@H]3OC(=O)C(OC(C)=O)[C@@H]24 (some centres not stated)	0.0232 µM	0.299 µM	30 nM	0.136 µM	40.8 nM	0.178 µM	0.0187 µM	0.0567 µM	0.0151 µM	0.0466 µM	36.4 nM	0.309 µM	0.0445 µM	0.206 µM	0.0168 µM	0.111 µM
O=c1oc(Cl)c(Cl)c2ccccc12	27.9 µM	> 100 µM	35800 nM	> 100 µM	22800 nM	63.7 µM	50.5 µM	> 100 µM	50 µM	> 100 µM	3250 nM	27.9 µM	18.3 µM	38.6 µM	44.3 µM	73.9 µM
CC1OC(n2c3ccccc3c3c4c(c5c6ccccc6[nH]c5c32)C(=O)N(CCN[C@@H]2CCC[C@H]2N)C4=O)CC(O)C1O (some centres not stated)	1.39 µM	6.58 µM	1350 nM	6.11 µM	1010 nM	4.19 µM	1.7 µM	7.6 µM	2.06 µM	9.07 µM	2310 nM	9.06 µM	2.22 µM	8.31 µM	3.23 µM	11.4 µM
O=S(=O)(Nc1ccc(Br)c(Cl)c1)c1ccc(-c2cnc(C3CC3)o2)cc1	0.517 µM	16.2 µM	445 nM	14.9 µM	765 nM	11.3 µM	1.27 µM	15.6 µM	–	–	487 nM	8.72 µM	1.52 µM	17.6 µM	1.61 µM	11.6 µM
COc1cccc(-n2nc(C)c3c(N/N=C(\C)c4ccncc4)ncnc32)c1	> 25 µM	> 25 µM	> 25000 nM	> 25 µM	> 25000 nM	> 25 µM	> 25 µM	> 25 µM	10.3 µM	> 25 µM	1860 nM	16.9 µM	> 25 µM	> 25 µM	> 25 µM	> 25 µM
O=C1c2cccc(NCCN=Cc3cc([N+](=O)[O-])ccc3O)c2C(=O)c2c(NCCN=Cc3cc([N+](=O)[O-])ccc3O)cccc21	6.95 µM	> 100 µM	2800 nM	> 100 µM	1780 nM	20.2 µM	5.8 µM	> 100 µM	16.7 µM	83.2 µM	3030 nM	84.1 µM	3.94 µM	58.1 µM	5.87 µM	> 100 µM
Cc1ccc(C(CC(=O)c2ccccc2)C2C(=O)NC(=O)NC2=O)cc1 (configuration not stated)	> 100 µM	> 100 µM	> 100000 nM	> 100 µM	> 100000 nM	> 100 µM	> 100 µM	> 100 µM	> 100 µM	> 100 µM	> 100000 nM	> 100 µM	> 100 µM	> 100 µM	> 100 µM	> 100 µM
CCC(C)[C@H]1O[C@]2(C=C[C@@H]1C)C[C@@H]1C[C@@H](C/C=C(\C)[C@@H](OC3C[C@H](OC)C(O[C@H]4C[C@H](OC)[C@@H](O)[C@H](C)O4)[C@H](C)O3)[C@@H](C)/C=C/C=C3\CO[C@@H]4[C@H](O)C(C)=C[C@@H](C(=O)O1)[C@]34O)O2 (some centres not stated)	3.38 µM	41.1 µM	1670 nM	5.96 µM	860 nM	1.62 µM	1.23 µM	4.16 µM	–	–	650 nM	1.41 µM	0.907 µM	1.62 µM	0.843 µM	1.67 µM
c1ccc(CN2CCC3(CC2)SSC2(CCN(Cc4ccccc4)CC2)S3)cc1	–	–	–	> 100 µM	–	33.3 µM	–	> 100 µM	–	> 100 µM	–	> 100 µM	–	> 100 µM	–	93.6 µM
C[C@]12CCc3sc(NCCc4ccccc4)nc3C1=CC[C@@H]1[C@@H]2CC[C@]2(C)C(=O)CC[C@@H]12	97.5 µM	> 100 µM	3600 nM	> 100 µM	3030 nM	8.77 µM	5.03 µM	> 100 µM	2.18 µM	6.82 µM	2750 nM	9.1 µM	3.64 µM	> 100 µM	8.19 µM	> 100 µM
O=C(Nc1ccncc1)C(=O)c1cn(Cc2ccc(Cl)cc2)c2ccccc12	0.0622 µM	> 100 µM	38.4 nM	> 100 µM	232 nM	> 22.3 µM	0.0548 µM	> 100 µM	0.0414 µM	> 100 µM	48.9 nM	> 75.1 µM	0.051 µM	> 65 µM	0.114 µM	> 100 µM

Compound	GI50 (SNB-19 CNS)	TGI (SNB-19 CNS)	GI50 (KM12 colon)	TGI (KM12 colon)	GI50 (COLO 205 colon)	TGI (COLO 205 colon)	GI50 (NCI-H23 lung)	TGI (NCI-H23 lung)	GI50 (MALME-3M melanoma)	TGI (MALME-3M melanoma)	GI50 (HOP-92 NSCLC)	TGI (HOP-92 NSCLC)	GI50 (DU-145 prostate)	TGI (DU-145 prostate)	GI50 (HCC-2998 colon)	TGI (HCC-2998 colon)
CCN(Cc1ccc(F)cc1)c1ccc(CO)c(F)c1	27.3 µM	> 100 µM	22900 nM	> 71.8 µM	10800 nM	27.6 µM	17.5 µM	> 94.6 µM	18.7 µM	43.9 µM	9520 nM	37.9 µM	23.5 µM	> 100 µM	18.7 µM	54.6 µM
CN[C@H](C#Cc1c(F)ccc2c1/C(=C/c1[nH]ccc1OC)C(=O)N2)CO	1.06 µM	21 µM	36 nM	1.76 µM	897 nM	3.39 µM	0.657 µM	3.11 µM	1.46 µM	5.06 µM	3170 nM	11.8 µM	0.411 µM	3 µM	0.746 µM	3.27 µM
CC1CC2OC(=O)C(C)C2CC2(C)C(OC3OC(CO)C(O)C(O)C3O)OCCC12 (configuration not stated)	–	> 100 µM	–	> 100 µM	–	> 100 µM	–	> 100 µM	–	> 100 µM	–	> 100 µM	–	> 100 µM	–	> 100 µM
COc1ccc(-c2nc(-c3ccccc3)c(-c3ccccc3)[nH]2)cc1OC1CCCC1	> 100 µM	> 100 µM	40900 nM	> 100 µM	> 100000 nM	> 100 µM	> 100 µM	> 100 µM	> 100 µM	> 100 µM	–	–	> 100 µM	> 100 µM	> 100 µM	> 100 µM
Cc1cc(NCCN(C(C)C)C(C)C)nc(/N=C(\N)Nc2ccc(Cl)c(C(F)(F)F)c2)n1	1.48 µM	2.83 µM	674 nM	1.79 µM	164 nM	0.305 µM	1.49 µM	3.08 µM	0.183 µM	0.403 µM	163 nM	1.01 µM	1.47 µM	3.04 µM	0.214 µM	0.469 µM
O=C(N/C(=C/c1ccc(Cl)cc1Cl)c1nc2ccccc2s1)c1ccccc1	–	41.1 µM	–	26.5 µM	–	37.2 µM	–	26.5 µM	–	31.1 µM	–	> 100 µM	–	31.5 µM	–	–
COc1cccc(C2=C(c3c(C)n(C)c4ccccc34)C(=O)NC2=O)c1	> 25 µM	> 25 µM	15500 nM	> 25 µM	14800 nM	> 25 µM	> 25 µM	> 25 µM	> 21.2 µM	> 25 µM	–	–	> 25 µM	> 25 µM	> 25 µM	> 25 µM
CCCc1cc(=O)[nH]c(-n2nc(C)cc2C)n1	4.5 µM	> 100 µM	5250 nM	> 100 µM	8450 nM	> 100 µM	–	–	–	–	–	–	7.66 µM	> 100 µM	14.3 µM	> 100 µM
OCC(O)C(Cl)CCl (configuration not stated)	–	> 100 µM	–	> 100 µM	–	> 100 µM	–	> 100 µM	–	> 100 µM	–	–	–	> 100 µM	–	> 100 µM
CN1CCN(CCOc2ccc(-c3cnc4c(-c5ccc(C(F)(F)F)cc5)cnn4c3)cc2)CC1	1.72 µM	3.22 µM	1710 nM	3.21 µM	–	–	1.62 µM	3.14 µM	1.48 µM	2.89 µM	1070 nM	2.33 µM	1.59 µM	2.93 µM	1.67 µM	3.34 µM
CC1(N)CCN(c2cccnc2NC(=O)c2nc(-c3ncccc3C(F)(F)F)cnc2N)CC1	50 µM	> 100 µM	413 nM	> 100 µM	5480 nM	36.6 µM	49.5 µM	> 100 µM	17.6 µM	36.4 µM	–	–	35.3 µM	> 100 µM	> 100 µM	> 100 µM
O=C(O/C(=C(/N=Nc1ccccc1)c1ccccc1)c1ccccc1)c1ccccc1	–	> 100 µM	–	> 100 µM	–	–	–	> 100 µM	–	> 100 µM	–	> 100 µM	–	–	–	> 100 µM
NC(=O)c1ccccc1Nc1ccc2nnc(-c3ccncc3)n2n1	14.4 µM	31.8 µM	9340 nM	21.2 µM	11600 nM	26.7 µM	15 µM	40.4 µM	8.38 µM	22.5 µM	–	–	14.3 µM	27.3 µM	16.6 µM	34.5 µM
CCn1cc(C(=O)N/N=C/c2ccccc2)c(=O)c2cc(F)c(N3CCNC(C)C3)c(F)c21 (configuration not stated)	–	–	–	–	–	–	–	–	–	–	1190 nM	2.46 µM	1.88 µM	3.3 µM	1.8 µM	3.32 µM
O=C(Nc1cccc(-n2cc(-c3ccncc3)c(-c3cc(O)cc(Cl)c3)n2)c1)Nc1ccc(Cl)c(C(F)(F)F)c1	3.7 µM	16.6 µM	2590 nM	9.86 µM	2250 nM	5.17 µM	2.58 µM	7.45 µM	2.37 µM	6.25 µM	–	–	3.27 µM	11.7 µM	3.93 µM	13.4 µM
O=C(O)c1cc2ccc3ccccc3c2oc1=O	–	> 100 µM	–	> 100 µM	–	> 100 µM	–	> 100 µM	–	> 100 µM	–	> 100 µM	–	–	–	> 100 µM
